# Assay results reported in patent publication US20220168295A1, “RIMEGEPANT FOR CGRP RELATED DISORDERS” (Biohaven Pharmaceutical Ireland DAC, priority 2018, published 2022).
# Key:
# Assay type in all cases: in vivo, human
# [1] = test system: subjects with Acute Migraines; assay: Study 303 (BHV3000-303) Phase 3 placebo-controlled trial, rimegepant 75 mg ODT, acute treatment of migraine: efficacy and safety
# Protocol: Clinical Trial—BHV3000-303: Phase 3: Double-Blind, Randomized, Placebo-Controlled, Safety and Efficacy Trial of BHV-3000 (Rimegepant) Orally Discintegrating Tablet (ODT) for the Acute Treatment of Migraine (ClinicalTrials.gov Identifier: NCT03461757) A phase 3 clinical study was conducted with 1812 participants, as follows. […] Pain freedom of rimegepant compared with placebo in the acute treatment of migraine will be measured using the number of evaluable subjects that report no pain at 2 hours post-dose. […] Pain will be measured on a 4 point Likert scale (0=none, 1=mild, 2=moderate, 3=severe) 2. Freedom from the most bothersome symptom (MBS) of rimegepant compared with placebo will be measured using the number of evaluable subjects that report the absence of their MBS at 2 hours post-dose. […] The MBS (nausea, phonophobia or photophobia) will measured using a binary scale (0=absent, 1=present). […] Pain Relief as measured by a 4 point numeric rating scale (None, Mild, Moderate, Severe) 2. […] Sustained Pain Relief as measured by a 4 point numeric rating scale (None, Mild, Moderate, Severe) 4. […] To measure rimegepant compared to placebo on the probability of requiring rescue medication will be assessed using the number of subjects that take rescue medication within […] administration of study medication (BHV3000 or placebo). […]
# [2] = Pooled liver function test (LFT) profile, Study 301 and Study 302; conditions: pooled Study 301 and 302; n = 1089
# Protocol: (§1) In a double-blind, randomized, placebo-controlled, multicenter study (Study 301, NCT03235479) adults 3.8 years of age with at least a 1-year history of ICHD 3-beta migraine were eligible to participate. Following a 3- to 28-day screening period, subjects were randomized to receive rimegepant 75 mg or matching placebo and instructed to treat a single migraine attack with 1 dose of the blinded study drug (rimegepant or placebo) when headache pain reached moderate or severe intensity. The coprimary endpoints were pain freedom at 2 hours postdose and freedom from the most bothersome symptom (MBS) at 2 hours postdose. Safety assessments included adverse events (AEs), ECGs, vital signs, physical measurements, and routine laboratory tests, including assessment of liver function. Unless stated otherwise, values presented are mean±SD.
# as §1, with “302, NCT03237845)” for “301, NCT03235479)”, “≥18” for “3.8”
# [3] = Pooled adverse event and LFT safety data, Studies 301, 302 and 303; design: ALT or AST >10x ULN / ALT or AST >20x ULN: unit not given here; conditions: pooled Studies 301, 302 and 303, n = 1,771
smiles,measurement,setting,value
"N[C@@H]1c2cccnc2[C@H](OC(=O)N2CCC(n3c(=O)[nH]c4ncccc43)CC2)CC[C@H]1c1cccc(F)c1F [Rimegepant, [(5S,6S,9R)-5-amino-6-(2,3-difluorophenyl)-6,7,8,9-tetrahydro-5H-cyclohepta[b]pyridin-9-yl] 4-(2-oxo-3H-imidazo[4,5-b]pyridin-1-yl)piperidine-1-carboxylate]",Patients with LFTs >3xULN,[1],one
same,"ALT >3x ULN, subjects n (%)",[2],1 (0.1%) n (%)
same,"ALT >5x ULN, subjects",[2],0
same,"ALT >10x ULN, subjects",[2],0
same,"ALT >20x ULN, subjects",[2],0
same,"ALT >ULN, subjects n (%)",[2],22 (2.0%) n (%)
same,"AST >3x ULN, subjects n (%)",[2],1 (0.1%) n (%)
same,"AST >5x ULN, subjects",[2],0
same,"AST >10x ULN, subjects",[2],0
same,"AST >20x ULN, subjects",[2],0
same,"AST >ULN, subjects n (%)",[2],12 (1.1%) n (%)
same,"ALT or AST >3x ULN, n (%)",[3],2 (0.1%) n (%)
same,ALT or AST >10x ULN,[3],0
same,ALT or AST >20x ULN,[3],0
same,"ALT or AST >ULN, n (%)",[3],48 (2.7%) n (%)
same,"ALT or AST >5x ULN, n (%)","[3]; AST elevation, not drug-related per investigator",1 (0.06%) ^2 n (%)
